According to PMC6781309, “Assessing Drug Interaction and Pharmacokinetics of Loxoprofen in Mice Treated with CYP3A Modulators” (Pharmaceutics, 2019):
Each block holds one molecule with its values, some of them ahead of it.

Tests used:
CYP2D = assay: CYP activity in liver S9 of treated mice: dextromethorphan O-demethylation; type: in vivo, Male ICR mice; conditions: liver S9, dextromethorphan 5 µM
Experimental: (§1) Twenty-four hours after the last treatment, the liver was excised and homogenized with three volumes of ice-cold 0.1 M potassium phosphate buffer (pH 7.4). The supernatant fraction was then separated as the S9 fraction from the mixture by centrifugation at 9000× g at 4 °C and stored at −80 °C until use.
(§2) To characterize the CYP activities in the harvested livers, phenacetin O-demethylation (using 80 µM of phenacetin) for CYP1A, dextromethorphan O-demethylation (using 5 µM of dextromethorphan) for CYP2D, and midazolam 1’-hydroxylation (using 5 µM of midazolam) for CYP3A were used as cocktail probe reactions. The level of protein in the S9 fraction was determined by Bradford assay. The cocktail probes were then incubated with 10 µL of each S9 fraction, potassium phosphate buffer (pH 7.4), and an NADPH generating system (NGS) in a final volume of 100 µL. After incubation for 30 min at 37 °C, ice-cold ACN containing 0.1% formic acid and IS (5 µM) was added to stop the reaction. Samples were then vortexed and centrifuged at 13,000× g for 10 min at 4 °C. Finally, the supernatants were transferred to LC-MS/MS vials for analysis.

CYP1A = conditions: liver S9, phenacetin 80 µM
Experimental: To characterize the CYP activities in the harvested livers, phenacetin O-demethylation (using 80 µM of phenacetin) for CYP1A, dextromethorphan O-demethylation (using 5 µM of dextromethorphan) for CYP2D, and midazolam 1’-hydroxylation (using 5 µM of midazolam) for CYP3A were used as cocktail probe reactions [21, 22]. The level of protein in the S9 fraction was determined by Bradford assay [23]. The cocktail probes were then incubated with 10 µL of each S9 fraction, potassium phosphate buffer (pH 7.4), and an NADPH generating system (NGS) in a final volume of 100 µL. After incubation for 30 min at 37 °C, ice-cold ACN containing 0.1% formic acid and IS (5 µM) was added to stop the reaction. Samples were then vortexed and centrifuged at 13,000× g for 10 min at 4 °C. Finally, the supernatants were transferred to LC-MS/MS vials for analysis.

CYP3A = assay: CYP activity in liver S9 of treated mice: midazolam 1'-hydroxylation; conditions: liver S9, KTC 60 mg/kg i.p. once, midazolam 5 µM, n = 3
Experimental: as §1, §2

[1] = Plasma pharmacokinetics of LOX, cis-LOX and trans-LOX after oral LOX in mice pretreated with DEX, KTC or vehicle; type: in vivo, Male ICR mice; conditions: mouse plasma, LOX 20 mg/kg oral, mean ± SE, n = 3
Experimental: The acclimatized animals were divided into eight groups, with each group containing 3 mice: groups I and II, vehicle (corn oil); groups III and IV, DEX-treated; groups V and VI, vehicle (10% Ethanol); and groups VII and VIII, KTC-treated group. […] Then, animals were fasted for 12 hours with free access to water before starting the experiment. […]
After the oral administration of LOX, blood from groups I, III, V, and VII was collected from the tail at 0, 5, 10, 15, 30, 60, 120, and 240 min post-administration and placed into sodium heparin-containing tubes. After the last blood collection, the mice were sacrificed by cervical dislocation. Plasma was then prepared by centrifuging the blood at 4000× g for 15 min at 4 °C and stored at −80 °C until analysis. For analysis, each sample was prepared by mixing plasma (10 µL) and 90 µL of ACN containing 0.1% formic acid and 5 µM of tolbutamide as an internal standard (IS). […] Finally, 10 µL of sample supernatant was injected into the LC-MS/MS system. The PK parameters (the maximum plasma concentration [Cmax], time to reach the maximum plasma concentration [Tmax], elimination half-life [T1/2], and area under the plasma concentrations [AUC]) were analyzed by WinNonlin software (Version 2.1, Scientific Consulting, Louisville, KY, USA).
A Shimadzu Prominence UFLC system (Kyoto, Japan) connected to a TSQ vantage triple quadrupole mass spectrometer with a HESI-II spray source incorporated with a DGU-20A5 degasser, an LC-20AD pump, a SIL-20A autosampler, and a CTO-20A column oven was used for the analyses. A shim-pack GIS C18 column (150 × 3.0 mm, […]) was used to separate analytes in the samples. Mobile phases A and B were composed of water with formic acid and ACN with 0.1% formic acid, respectively, and the flow rate was 0.50 mL/min at 40 °C. The gradient conditions were as follows: 20% of B between 0 and 0.25 min, 20–80% of B between 0.25 and 9.75 min, 80–20% of B between 9.75 and 10 min, and 20% of B between 10 and 13 min. The MS was operated under the following conditions: electrospray ionization in negative mode at 3.0 kV, capillary temperature at 350 °C, vaporizer temperature at 300 °C, sheath gas pressure at 35 Arb, and auxiliary gas pressure at 10 Arb. Finally, Xcalibur software (Thermo Fisher Scientific Inc., Waltham, MA, USA) was used for data analysis.

[2] = Relative concentration of LOX and its metabolites in hepatic portal vein plasma 10 min post-LOX (HRMS); type: in vivo, Male ICR mice; conditions: hepatic portal vein plasma 10 min after LOX 20 mg/kg oral, n = 3; for Relative concentration in plasma (DEX average % of area, VH corn oil = 100): DEX 40 mg/kg i.p. 3 days; for Relative concentration in plasma (KTC average % of area, VH 10% ethanol = 100): KTC 60 mg/kg i.p. single dose
Experimental: The acclimatized animals were divided into eight groups, with each group containing 3 mice: groups I and II, vehicle (corn oil); groups III and IV, DEX-treated; groups V and VI, vehicle (10% Ethanol); and groups VII and VIII, KTC-treated group. […] Then, animals were fasted for 12 hours with free access to water before starting the experiment. After fasting, LOX (20 mg/kg) was administered orally to […].
Similarly, blood from groups II, IV, VI, and VIII was collected from the hepatic portal vein 10 min post-LOX administration to identify metabolites of LOX and to analyze drug–drug interactions. Plasma from these samples was prepared as explained above. Then, 300 µL of ACN having 0.1% formic acid and 5 µM of the IS were mixed with 100 µL of each plasma sample. […] Supernatants were transferred into tubes and dried using a Labconco Speed Vac (Labconco Corporation, Kansas City, MO, USA). […] Each supernatant was transferred into an LCMS vial, and 5 µL were injected into a high-resolution mass spectrometer (HRMS).
HRMS coupled with ultrahigh performance liquid chromatography (UHPLC) was used to detect hydroxy-LOX and other metabolites of LOX. The UHPLC system, Dionex Ultimate 3000 (Dionex Softron GmbH, Germering, Germany) consisted of an HPG-3200SD Standard binary pump, a WPS 3000 TRS analytical autosampler, and a TCC-3000 SD column compartment. In this experiment, the HRMS was a Q Exactive Focus quadrupole-Orbitrap MS (Thermo Fisher Scientific, Bremen, Germany) equipped with a heated electrospray ionization (HESI-II) ion probe.
LOX was detected as a deprotonated ion [M-H]^− at m/z 245.1175 in negative ion mode. Therefore, negative ion mode was used with the following optimized conditions for LOX: spray voltage of 2.5 kV, capillary temperature of 320 °C, auxiliary gas at 12 aux unit, aux gas heater temperature of 200 °C, sheath gas at 35 aux units, and S-lens RF level of 50. LOX and its metabolites were separated using a 150 mm × 2.1 mm, 2.6-μm reverse-phase liquid chromatography column, Kinetex® C18 column (Phenomenex, CA, USA) at 40 °C. Furthermore, MS-grade solvents were used as the mobile phase in gradient elution mode: 0.1% aqueous formic acid as Solvent A and 0.1% formic acid in ACN as Solvent B. The flow was set to 0.22 mL/min with a gradient condition of Solvent B as 10% between 0 and 0.5 min, 10–50% between 0.5 and 21.5 min, 50–95% between 21.5 and 22.5 min, 95% between 22.5 and 25.5 min, 95–10% between 25.5 and 25.6 min, and 10% between 25.6 and 30 min.

[3] = pretreated DEX 40 mg/kg i.p. 3 days
[4] = pretreated KTC 60 mg/kg i.p. single dose
[5] = pretreated VH (10% ethanol) i.p. single dose
[6] = pretreated VH (corn oil) i.p. 3 days

Metabolic activity of other CYP enzymes (CYP2D, dextromethorphan O-demethylation), VH vs treated (CYP2D): unaffected
Metabolic activity of other CYP enzymes (CYP1A, phenacetin O-demethylation), VH vs treated (CYP1A): unaffected
SMILES: C[C@@H]1C[C@H]2[C@@H]3CCC4=CC(=O)C=C[C@]4(C)[C@@]3(F)[C@@H](O)C[C@]2(C)[C@@]1(O)C(=O)CO [DEX, dexamethasone]

SMILES: CC(=O)N1CCN(c2ccc(OCC3COC(Cn4ccnc4)(c4ccc(Cl)cc4Cl)O3)cc2)CC1 (stereo not shown) [KTC, ketoconazole]
Effect on the metabolism of CYP3A4 substrate (midazolam) compared to the VH group (CYP3A): significantly decreased
Metabolic activity of other CYP enzymes (CYP2D, dextromethorphan O-demethylation), VH vs treated (CYP2D): unaffected

AUC(0–60) [1, 3]: 29.9 ± 4.4 µg·min/mL
AUC(0–∞) [1, 3]: 31.5 ± 4.4 µg·min/mL
Cmax [1, 3]: 1100 ± 200 ng/mL
T1/2 (elimination half-life) [1, 3]: 13.9 ± 0.6 min
Tmax [1, 3]: 10.0 ± 1.0 min
AUC(0–60) [1, 4]: 49.0 ± 5.9 µg·min/mL
AUC(0–∞) [1, 4]: 51.9 ± 6.1 µg·min/mL
Cmax [1, 4]: 1600 ± 100 ng/mL
T1/2 (elimination half-life) [1, 4]: 13.4 ± 0.6 min
Tmax [1, 4]: 11.6 ± 0.8 min
AUC(0–60) [1, 5]: 36.0 ± 3.9 µg·min/mL
AUC(0–∞) [1, 5]: 38.4 ± 4.4 µg·min/mL
Cmax [1, 5]: 1200 ± 100 ng/mL
T1/2 (elimination half-life) [1, 5]: 13.3 ± 0.9 min
Tmax [1, 5]: 13.3 ± 0.8 min
AUC(0–60) [1, 6]: 72.7 ± 12.4 µg·min/mL
AUC(0–∞) [1, 6]: 75.8 ± 12.8 µg·min/mL
Cmax [1, 6]: 2400 ± 300 ng/mL
T1/2 (elimination half-life) [1, 6]: 12.3 ± 0.3 min
Tmax [1, 6]: 10.4 ± 0.7 min
Relative concentration in plasma (DEX average % of area, VH corn oil = 100) [2]: 61.9 ± 3.9%
Relative concentration in plasma (DEX average % of area, VH corn oil = 100) ([2]; listed as M2): 61.91%
Relative concentration in plasma (KTC average % of area, VH 10% ethanol = 100) [2]: 173.1 ± 5.8%
Relative concentration in plasma (KTC average % of area, VH 10% ethanol = 100) ([2]; listed as M2): 173.08%
SMILES: CC(C(=O)O)c1ccc(CC2CCCC2O)cc1 (stereo not drawn) [cis-LOX]
